Measured values: patent US20260027244A1, “SILICON-BASED FLUORIDE ACCEPTOR GROUPS FOR RADIOPHARMACEUTICALS” (Technische Universität München, priority 2022, published 2026)
Read-outs that look alike come from different tables or passages of the source. Values belong to the molecule of their own block, whether it stands above or below them.

Tests used:
[1] = biological target: T1, human serum albumin (HSA) (Homo sapiens, UniProt P02768); assay: HSA binding of reference substances from literature (HPAC calibration); settings: logarithmic value of HSA binding values
Experimental: HSA binding of the PSMA-addressing ligands by HPAC was determined according to a previously published procedure via HPLC. […] Mobile phase A was a freshly prepared 50 mM aqueous solution of NH4OAc (pH 6.9) and mobile phase B was isopropanol (HPLC grade, VWR). The applied gradient for all experiments was 100% A (0 to 3 min), followed by 80% A (3 to 40 min). […] (12,13). All substances were dissolved in a 1:1 mixture (v/v) of isopropanol and a 50 mM aqueous solution of NH4OAc (pH 6.9) with a final concentration of 0.5 mg/mL. Non-linear regression was established with the OriginPro 2016G software (Northampton, United States).

[2] = biological target: T1, human serum albumin (HSA); settings: HSA binding values obtained from literature; cited from earlier work
PSMA = biological target: T2, PSMA (Homo sapiens, UniProt Q04609); assay: PSMA affinity (IC50) on LNCaP cells, competition with [125I]I-BA-KuE; format: binding
T2 construct: host or cells: LNCaP cells
Experimental: A mixture of trypsin and EDTA (0.05%, 0.02%) in PBS (Biochrom GmbH, Berlin, Germany) was used to harvest cells. Cells were counted with a Neubauer hemocytometer (Paul Marienfeld, Lauda-Königshofen, Germany).
In the case of metal-complexed ligands, the crude reaction mixture was diluted analogously, without further purification. Cells were harvested 24±2 hours prior to the experiment and seeded in 24-well plates (1.5×10^5 cells in 1 mL/well). After removal of the culture medium, the cells were carefully washed with 500 μL of HBSS (1% BSA) and left 15 min on ice for equilibration in 200 μL HBSS (1% BSA). […] For each concentration, the experiment was performed in triplicate. After incubation on ice for 60 min, the experiment was terminated by removal of the medium and consecutive rinsing with 200 μL of HBSS (1% BSA). The media of both steps were combined in one fraction and represent the amount of free radioligand. Afterwards, the cells were lysed with 250 μL of NaOH (1 M in H2O) for at least 15 min. After a washing step with NaOH (250 μL, 1 M in H2O), both fractions, representing the amount of bound ligand, were united. Quantification of all collected fractions was accomplished in a γ-counter. IC50 values were calculated using GraphPad PRISM software (GraphPad Software Inc., La Jolla, United States). The whole PSMA-affinity determination was carried out at least three times per ligand.

[3] = n-octanol-water partition coefficient (log D7.4); format: physicochemical
Experimental: In the development process of alternative SiFA-analogs, the influence of the substitution pattern at the aromatic moiety on lipophilicity is of particular importance. […] Assuming to observe a better differentiation in properties of the various prosthetic groups, investigations were conducted on small model peptides. Corresponding log D7.4-values (n≥8) are depicted in FIG. 3.
Approximately 1 MBq of the [^177Lu]Lu-labeled tracer or 0.5 MBq of the [^18F]F-labeled tracer was dissolved in 1 mL of n-octanol/PBS (v/v=1:1) in a reaction vial (1.5 mL). After vigorous mixing of the suspension for 3 min at rt, the vial was centrifuged at 15000 g for 5 min (Biofuge 15, Heraus Sepatech, Osterode, Germany) and 100 μL aliquots of both layers were measured in a γ-counter. The experiment was repeated (n≥6).

[4] = biological target: T1, human serum albumin (HSA); assay: Human serum albumin (HSA) binding by high performance affinity chromatography (HPAC); format: in vitro ADME; settings: radiohybrid SSTR ligands, Table 4
Experimental: Investigations about the binding strength of the SiFA-MPs to human serum albumin (HSA) were conducted using high performance affinity chromatography (HPAC). The corresponding gold-standards ((4-SiFA)Bz-MPs) display—as expected from published as well as internal data—a quite strong HSA binding. This is associated with a comparably slow and unfavored blood clearance in vivo.

[5] = Biodistribution in LNCaP tumor-bearing male CB17-SCID mice; format: in vivo; settings: 1 h p.i.
Excerpt: Data expressed as percentage of the injected dose per gram (% ID/g), mean±standard deviation. Data of [18F]F, ^natGa-rhPSMA-7.3 were previously published by our group. (2)
Mice were used for experiments when tumors had grown to a diameter of 2-6 mm (4-20 weeks after inoculation).
Results are all decay-corrected and given in % injected dose per gram of tissue (% ID/g).

[6] = 1 h p.i.; previously published data; cited from earlier work

T2 sequence (Q04609 whole entry): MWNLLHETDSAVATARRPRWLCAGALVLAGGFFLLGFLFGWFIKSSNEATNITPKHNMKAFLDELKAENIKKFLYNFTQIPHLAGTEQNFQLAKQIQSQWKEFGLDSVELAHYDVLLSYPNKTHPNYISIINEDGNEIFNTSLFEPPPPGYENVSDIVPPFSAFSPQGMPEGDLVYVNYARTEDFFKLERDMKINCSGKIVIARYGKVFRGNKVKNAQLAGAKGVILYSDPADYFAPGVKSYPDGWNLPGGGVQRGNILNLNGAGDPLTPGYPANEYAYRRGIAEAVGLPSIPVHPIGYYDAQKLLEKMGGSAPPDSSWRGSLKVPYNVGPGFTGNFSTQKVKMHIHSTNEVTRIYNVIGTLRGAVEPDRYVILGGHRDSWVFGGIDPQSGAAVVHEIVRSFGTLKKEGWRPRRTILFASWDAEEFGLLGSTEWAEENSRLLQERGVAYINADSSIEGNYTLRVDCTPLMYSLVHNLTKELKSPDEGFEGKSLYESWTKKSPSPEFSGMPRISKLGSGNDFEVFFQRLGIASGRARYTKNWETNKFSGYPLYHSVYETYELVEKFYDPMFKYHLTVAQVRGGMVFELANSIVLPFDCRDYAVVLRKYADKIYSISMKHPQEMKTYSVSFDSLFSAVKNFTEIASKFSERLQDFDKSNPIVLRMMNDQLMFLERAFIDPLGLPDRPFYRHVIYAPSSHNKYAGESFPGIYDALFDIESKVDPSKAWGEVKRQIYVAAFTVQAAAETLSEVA
T1 sequence (P02768 25-609): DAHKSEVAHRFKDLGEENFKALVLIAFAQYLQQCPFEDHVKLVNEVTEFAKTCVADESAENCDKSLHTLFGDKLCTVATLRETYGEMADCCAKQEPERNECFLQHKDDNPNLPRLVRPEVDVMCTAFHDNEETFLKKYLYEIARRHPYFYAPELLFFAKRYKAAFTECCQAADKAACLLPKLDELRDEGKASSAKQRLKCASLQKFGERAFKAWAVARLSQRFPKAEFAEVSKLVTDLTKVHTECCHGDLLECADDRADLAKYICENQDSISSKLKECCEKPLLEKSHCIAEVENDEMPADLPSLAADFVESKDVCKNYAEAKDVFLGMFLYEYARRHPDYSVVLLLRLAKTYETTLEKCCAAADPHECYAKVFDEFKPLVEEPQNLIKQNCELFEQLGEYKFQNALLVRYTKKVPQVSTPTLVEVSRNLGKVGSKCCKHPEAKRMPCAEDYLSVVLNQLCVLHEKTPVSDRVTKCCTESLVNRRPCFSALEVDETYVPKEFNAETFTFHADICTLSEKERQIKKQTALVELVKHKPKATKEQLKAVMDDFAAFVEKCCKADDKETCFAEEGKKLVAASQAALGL

Compound: Nc1ccccc1 [Aniline]
Log K HSA [1]: −0.79
lit. HSA [%] [2]: 14.06%

Compound: O=C(O)c1ccccc1 [Benzoic Acid]
lit. HSA [%] [2]: 34.27%

Compound: CC(C)(C)[Si](F)(c1ccc(C(=O)NCCCC[C@H](NC(=O)N[C@@H](CCC(=O)O)C(=O)O)C(=O)O)cc1)C(C)(C)C [Entry 1]
IC50 (PSMA): 327 ± 73 nM
logD7.4 (n = 6) ([3]; pH 7.4): −1.95 ± 0.09

Compound: C[C@@H](O)[C@H](NC(=O)[C@@H]1CSSC[C@H](NC(=O)[C@@H](Cc2ccccc2)NC(=O)CN2CCN(CC(=O)O)CCN(CC(=O)NCCNC(=O)c3cc(C(=O)O)cc([Si](F)(C(C)(C)C)C(C)(C)C)c3)CCN(CC(=O)O)CC2)C(=O)N[C@@H](Cc2ccc(O)cc2)C(=O)N[C@H](Cc2c[nH]c3ccccc23)C(=O)N[C@@H](CCCCN)C(=O)N[C@@H]([C@@H](C)O)C(=O)N1)C(=O)O [Entry 4, ^natGa-(5-SiFA)Ip-EDA-DOTATATE, metal not drawn]
HSA binding (HPAC) [%] [4]: 97.4%
logD7.4 (n = 6) ([3]; 18F-labeled compound, SSTR ligands): −0.67 ± 0.03

Log K HSA [1]: 1.69
Compound: COc1ccc(Cl)cc1C(=O)NCCc1ccc(S(=O)(=O)NC(=O)NC2CCCCC2)cc1 [Glibenclamide]
lit. HSA [%] [2]: 99.00%

logD ([3]; pH 7.4): -2.25
Compound: CCCC[C@@H](C(=O)N[C@@H](CC(=O)O)C(=O)N[C@@H](Cc1cccc2ccccc12)C(N)=O)N(C)C(=O)[C@H](Cc1c[nH]c2ccccc12)NC(=O)CNC(=O)[C@H](Cc1ccc(O)cc1)NC(=O)[C@H](C)NC(=O)[C@@H](CCC(=O)O)NC(=O)CN1CCN(CC(=O)O)CCN(CC(=O)O)CCN(CC(=O)O)CC1 [Lu-DOTA-MGS5]

Compound: CC(C)(C)[Si](F)(c1cccc(C(=O)NCCCC[C@H](NC(=O)N[C@@H](CCC(=O)O)C(=O)O)C(=O)O)c1)C(C)(C)C [PSMA-2]
increase in affinity (PSMA; shift of silyl group from para (PSMA-1) to meta position): more than 20 fold

Compound: CC(C)(C)[Si](F)(c1cc(C(=O)O)cc(C(=O)NCCCC[C@H](NC(=O)N[C@@H](CCC(=O)O)C(=O)O)C(=O)O)c1)C(C)(C)C [PSMA-3]
further improvement of affinity, factor (PSMA; attaching a carboxylic acid, compared to PSMA-2): two
accumulation in intestine [5]: 17.7±1.6 % ID/g
accumulation in liver [5]: 7.2±4.8 % ID/g
blood value [5]: 0.55 % ID/g
bone uptake [5]: 1.16±0.22 % ID/g
kidney value [5]: 67.1±13.9 % ID/g

Compound: Oc1ccccc1 [Phenol]
Log K HSA [1]: −0.59
lit. HSA [%] [2]: 20.69%

Compound: CCCN(CCC)S(=O)(=O)c1ccc(C(=O)O)cc1 [Probenecid]
lit. HSA [%] [2]: 95.00%

Compound: CC(C)(C)[Si](F)(c1ccc(C(=O)NC[C@@H](NC(=O)CC[C@@H](C(=O)O)N2CCN(CC(=O)O)CCN(CC(=O)O)CCN(CC(=O)O)CC2)C(=O)N[C@H](CCCCC(=O)NCCC(=O)NCCC[C@@H](NC(=O)CC[C@H](NC(=O)N[C@@H](CCC(=O)O)C(=O)O)C(=O)O)C(=O)O)C(=O)O)cc1)C(C)(C)C [[^18F]F, ^natGa-rhPSMA-7.3, metal not drawn]
blood value [6]: 0.96 % ID/g
bone uptake [6]: 0.38±0.32 % ID/g
